Assay results from patent publication EP0894794A1, “Optical isomers of cloperastine” (AESCULAPIUS FARMACEUTICI S.r.l., priority 1997, dated 1999).
Marks after values point to notes of the source that are not given here.

Legend:
[1] = test system: mouse; test: narcosis from hexobarbital (interaction with central depressants); details: fendizoate; for Duration of sleep: mean ± SD after intraperitoneal 80 mg/kg sodium hexobarbital, mouse; for % variation: sleeping time vs. vehicle controls
[2] = test system: guinea pigs; test: citric acid aerosol coughing test; details: for ED50 / inhibition at 1 mg/kg / inhibition at 5 mg/kg / inhibition at 10 mg/kg: Cavia porcellus, inhaled or nasal; for inhibition at 1 mg/kg / inhibition at 5 mg/kg / inhibition at 10 mg/kg: read-out: inhib. %; for coughs in 3 min mean + SD: fendizoate, guinea pigs, 8 animals
[3] = test system: mouse; test: test of potentiation of pentylenetetrazole (interaction with central stimulants); details: fendizoate, dose 150 mg/kg; for % variation: mean score vs. vehicle controls; for Mean score: scores 0 to 4 after intraperitoneal 50 mg/kg PTZ, mouse, 20 animals
[4] = test system: rat; test: acute toxicity (LD50), rat; details: HCl, female rat
[5] = test system: mouse; test: acute toxicity (LD50), mouse; details: HCl, female mouse
[6] = acute toxicity (LD50), rat; details: rat, in vivo, ip, LD50 and 95% conf. lim., HCl; female rat; intraperit.
[7] = acute toxicity (LD50), mouse; details: mouse, in vivo, LD50 and 95% conf. lim., HCl, female mouse

## Clc1ccc(C(OCCN2CCCCC2)c2ccccc2)cc1 (racemic) [DL-CLO, DL-cloperastine]
[1]; dose 5 mg/kg
  Duration of sleep: 53.80 ± 9.05 min
  % variation: +61.1**(°°) %
[1]; dose 15 mg/kg
  Duration of sleep: 45.50 ± 6.39 min
  % variation: +36.2**(°) %
[1]; dose 50 mg/kg
  Duration of sleep: 25.80 ± 7.30 min
  % variation: -22.8(°°) %
[1]; dose 150 mg/kg
  Duration of sleep: 10.40 ± 4.18 min
  % variation: -68.9** %
[2]
  ED50: 7.22 mg/kg
  inhibition at 1 mg/kg: 13.5%
  inhibition at 5 mg/kg: 41.9%
  inhibition at 10 mg/kg: 57.2%
[2]; dose 1 mg/kg
  coughs in 3 min mean + SD: 57.7 ± 8.21
[2]; dose 5 mg/kg
  coughs in 3 min mean + SD: 38.4 ± 5.33
[2]; dose 10 mg/kg
  coughs in 3 min mean + SD: 28.3 ± 4.50
[3]
  % variation: 122.7%
  Mean score: 2.45**(°°)

## Clc1ccc(C(OCCN2CCCCC2)c2ccccc2)cc1 (single isomer, unassigned) [D-CLO, D(+) cloperastine]
[1]; dose 5 mg/kg
  Duration of sleep: 71.70 ± 10.92 min
[1]; dose 5 mg/kg, 5 mg/kg
  % variation: +114.7**(°°) %
[1]; dose 15 mg/kg
  Duration of sleep: 45.80 ± 8.67 min
[1]; dose 15 mg/kg, 15 mg/kg
  % variation: +37.1*(°) %
[1]; dose 50 mg/kg
  Duration of sleep: 22.40 ± 6.37 min
[1]; dose 50 mg/kg, 50 mg/kg
  % variation: -32.9*(°°) %
[1]; dose 150 mg/kg
  Duration of sleep: 8.90 ± 3.01 min
[1]; dose 150 mg/kg, 150 mg/kg
  % variation: -73.4**(°°) %
[4]; intraperit.
  LD50 and 95% conf. lim.: 106 (82-138) mg/kg
[4]; oral
  LD50 and 95% conf. lim.: 602 (474-764) mg/kg
[3]; 150 mg/kg
  % variation: 186.4%
[3]
  Mean score: 3.15**(°°)
[5]; intraperit.
  LD50 and 95% conf. lim.: 96 (74.4-123.8) mg/kg
[5]; oral
  LD50 and 95% conf. lim.: 269 (219-331) mg/kg

## Clc1ccc(C(OCCN2CCCCC2)c2ccccc2)cc1 (single isomer, unassigned) [L-CLO, L(-) cloperastine]
[1]; dose 5 mg/kg
  Duration of sleep: 38.90 ± 7.89 min
[1]; dose 5 mg/kg, 5 mg/kg
  % variation: +16.5%
[1]; dose 15 mg/kg
  Duration of sleep: 67.60 ± 16.75 min
[1]; dose 15 mg/kg, 15 mg/kg
  % variation: +102.3** %
[1]; dose 50 mg/kg
  Duration of sleep: 43.10 ± 9.07 min
[1]; dose 50 mg/kg, 50 mg/kg
  % variation: +29.0(°) %
[1]; dose 150 mg/kg
  Duration of sleep: 18.70 ± 2.87 min
[1]; dose 150 mg/kg, 150 mg/kg
  % variation: -44.1** %
[2]
  ED50: 4.23 mg/kg
  inhibition at 1 mg/kg: 32.7%
  inhibition at 5 mg/kg: 45.4%
  inhibition at 10 mg/kg: 66.3%
[2]; dose 1 mg/kg
  coughs in 3 min mean + SD: 44.5 ± 8.65
[2]; dose 5 mg/kg
  coughs in 3 min mean + SD: 36.1 ± 5.24
[2]; dose 10 mg/kg
  coughs in 3 min mean + SD: 22.3 ± 5.20
[6]
  LD50: 195 mg/kg
[4]; oral
  LD50 and 95% conf. lim.: 1226 (981-1532) mg/kg
[3]; 150 mg/kg
  % variation: 36.4%
[3]
  Mean score: 1.50
[7]; ip, intraperit.
  LD50: 171 mg/kg
[7]; po
  LD50: 512 mg/kg
